Patent EP2371816A1, “Aminocyclohexenone, their preparation and use as medicament against oxidative stress” (ABIOGEN PHARMA S.p.A., priority 2010, dated 2011)

Tests used:
[1] = pH at the semi-neutralization point of titration (pKa); assay type: physicochemical; details: titration with 0.1 N NaOH or HCl
Method: The following equipment was used during the implementation of all the examples: • for melting point determination a Buchi B-540 instrument was used; • for pH determination at the semi-neutralization point of titration (pKa) a Mettler Toledo DL-50 instrument was used with a 0.1 N xNaOH or HCl solution; • the ^1H-NMR spectra were recorded at 300 MHz and the ^13C-NMR spectra were recorded at 75 MHz using a Varian Unity 300 instrument; • spectrophotometric measurements were carried out using a Lambda Perkin Elmer 15 UV/Vis spectrophotometer for the DPPH assay and a Wallac Victor 1420 multilabel counter spectrophotometer.

[2] = system: cerebral oxidative stress induced in mice by doxorubicin; experiment: In vivo assay of cerebral oxidative stress induced in mice by doxorubicin; details: for Brain/BWi its own / CAT/pr its own / GPX/pr its own / GSH/pr its own / GST/pr its own / Prot. Hmg its own / Prot. Ox/pr its own / SOD/pr its own / Brain/BWi vehicle / CAT/pr vehicle / GPX/pr vehicle / GSH/pr vehicle / GST/pr vehicle / Prot. Hmg vehicle / Prot. Ox/pr vehicle / SOD/pr vehicle: % inhibition relative to variation due to doxorubicin alone, oxidized animals; for Brain/BWi its own / CAT/pr its own / GPX/pr its own / GSH/pr its own / GST/pr its own / Prot. Hmg its own / Prot. Ox/pr its own / SOD/pr its own: as function of its own control; for Brain/BWi vehicle / CAT/pr vehicle / GPX/pr vehicle / GSH/pr vehicle / GST/pr vehicle / Prot. Hmg vehicle / Prot. Ox/pr vehicle / SOD/pr vehicle: as function of vehicle; for Brain/BWi / CAT/pr / GPX/pr / GSH/pr / GST/pr / Prot. Hmg / Prot. Ox/pr / SOD/pr: % variation relative to the vehicle, 50 mg/kg IP x3 days (D = doxorubicin alone); for Brain/BWi / CAT/pr / GPX/pr / GSH/pr / GST/pr / Prot. Hmg / Prot. Ox/pr / SOD/pr / Mean % variation relative to the vehicle: healthy animals; for Mean % variation relative to the vehicle: 50 mg/kg IP days 0, 1 and 2, mean over all parameters, approximate safety index (D = doxorubicin alone); for overall percentage inhibition: with respect to Its own vehicle
Method: The assay was carried out on compounds (1) and (3)-(6) and on edaravone (E) as comparative compound.
10 mice were used for each treatment group. For each compound 50 mg/kg were administered intraperitoneally (IP) for three consecutive days (day 0, 1 and 2); half the animals (5) also received IP 16.7 mg/kg of doxorubicin immediately after the first treatment (day 0). On the day after the last administration (day 3) the animals were killed by neck dislocation and the brains were removed, weighed and frozen in liquid nitrogen.
For the analyses of oxidative stress, 100 mg/ml of brain homogenate was prepared in Hebe buffer (pH 7.4 EDTA/HEPES^(**)) containing a mixture of enzyme inhibitors (Leupeptin, Pepstatin, Aprotinin, BHA). • ^(*) Hypotonic Extraction Buffer • ^(**) 4-2-hydroxyethyl-1-piperazinyl-ethanesulphonic acid
The evaluation parameters were: • BrW/BWi: ratio between final brain weight and initial body weight (day 0); • Prot. Hmg: total proteins in the homogenate (BCA method, i.e. bicinchoninic acid); • Prot. Ox: oxidized proteins in the Hmg by means of a colorimetric method using […] (DNPH); • GSH: reduced glutathione in the supernatant (sn) of the Hmg, obtained after precipitation with metaphosphoric acid (MPA), by means of a colorimetric method using […] (DTNB); • CAT: catalase in the Hmg by a colorimetric method using potassium dichromate; • SOD: superoxide dismutase by a colorimetric method using SOD Reagent (xanthine, EDTA, nitroblue tetrazole, Na2CO3, BSA, i.e. bovine serum albumin); • GST: glutathione S-transferase in the supernatant by a colorimetric method using chlorodinitrobenzene (CDNB) and GSH; and • GPx: glutathione peroxidase in the supernatant after addition of GSH and tert butyl hydroperoxide (t-BuOOH), heating and precipitation with MPA; followed by GSH method with DTNB.
All the parameters, with the exclusion of Brain/BWi and Prot. Hmg, were normalized for total Hmg proteins (Table 3). The D value standard deviations and the % incidence relative to V are given in italics.
The mean % effect, on all the parameters simultaneously, of the triple treatment in the healthy animals, as mean percentage variation relative to the vehicle (table 4). This value is useful as an approximate safety index of the oxidative state of the brain, i.e. the capacity of the compounds of the invention not to alter cerebral homeostasis in healthy animals.
The effect of the tested compounds on the "oxidized" animals was given as % inhibition relative to the percentage variation due to doxorubicin alone. The effect of the compounds on the oxidized animals can be expressed both as a function of the values of the vehicle (healthy, vehicle only) and as a function of the value of its own control (healthy, compound only): • Vehicle: percentage [(Compound+D)/V]x100/[(V+D)/V]x100 • Its own: percentage [(Compound+D)/Compound]x100/[(V+D)/V]x100

[3] = mouse, in vivo
Method: The ability of the compounds of the invention to penetrate the brain was investigated by measuring their brain/plasma (B/P) concentration ratio in mice following intraperitoneal administration.
Female CD-1 mice were used (n=3 for each time period) and received the compounds of the invention by intraperitoneal administration, in 25 mg/kg doses in a 0.5% NaHCO3 buffer (pH 8.3). At predefined intervals following said administration, i.e. 5, 15, 30 and 60 minutes, the mice were killed and both plasma and total brain tissue were collected.
Specifically, after anaesthesia with ether, the animals were bled by blood withdrawal from the abdominal aorta then immediately decapitated. The blood samples were collected into plasma separator tubes containing Li-Heparin as anticoagulant and centrifuged. The resulting plasma was then stored at -20 °C. The brain was rapidly removed from the cranium and weighed, subsequently frozen and stored at -20 °C before treatment by homogenization and HPLC analysis.
The plasma was thawed and mixed with an equal volume of the extraction solution. This extraction solution was a mixture of aqueous and organic solvents whose composition had been previously determined by HPLC undertaken for each analyte.
1 ml of solution was then extracted by adding 20 µl of 70% HClO4 then centrifuged at 15,500g for 5 minutes and injected into the HPLC.
Each brain was thawed and homogenized with the extraction solution to provide a final composition of 4 ml/1g of tissue by means of an Ultra-Turrax blender and sonicated for 5 minutes. After centrifugation of the homogenate at 15,500g for 5 minutes, the resulting solution was treated with HClO4, as indicated for the plasma.
Specific chromatographic conditions had been developed for each analyte, the calibration curve being constructed for plasma and brain homogenate.

| SMILES | Brain/BWi its own [2] [%] | CAT/pr its own [2] [%] | GPX/pr its own [2] [%] | GSH/pr its own [2] [%] | GST/pr its own [2] [%] | Prot. Hmg its own [2] [%] | Prot. Ox/pr its own [2] [%] | SOD/pr its own [2] [%] | Brain/BWi vehicle [2] [%] | CAT/pr vehicle [2] [%] | GPX/pr vehicle [2] [%] | GSH/pr vehicle [2] [%] | GST/pr vehicle [2] [%] | Prot. Hmg vehicle [2] [%] | Prot. Ox/pr vehicle [2] [%] | SOD/pr vehicle [2] [%] | Brain/BWi [2] [%] | CAT/pr [2] [%] | GPX/pr [2] [%] | GSH/pr [2] [%] | further results |
| --- | --- | --- | --- | --- | --- | --- | --- | --- | --- | --- | --- | --- | --- | --- | --- | --- | --- | --- | --- | --- | --- |
| CC1(C)CC(=O)C=C(NCCN2CCCCC2)C1 [(1), 5,5-dimethyl-3-(2-(piperidin-1-yl)ethylamino)cyclohex-2-enone] | -76.8 | -32.6 | -16.2 | -8.8 | 5.5 | -16.9 | -95.9 | -9.1 | -33.3 | 77.3 | 22.2 | -2.4 | 16.5 | 22.9 | -82.6 | 29.4 | -3.2 | -7.1 | -7.6 | -1.5 | Acid dissociation constants: pKa1 [1]: 2.82; Acid dissociation constants: pKa2 [1]: 8.64; GST/pr [2]: -2.3%; Prot. Hmg [2]: 5.3%; Prot. Ox/pr [2]: 1.4%; SOD/pr [2]: -5.9%; Mean % variation relative to the vehicle [2]: -4.3%; overall percentage inhibition [2]: greater than 40%; bioavailability at the target site / crossing of the blood-brain barrier [3]: particularly bioavailable, as well as able to cross the blood-brain barrier in effective amounts |
| O=C1C=C(NCCN2CCCCC2)CC(c2ccccc2)C1 (centres unmarked) [(3), 5-phenyl-3-(2-(piperidin-1-yl)ethylamino)cyclohex-2-enone] | -30.4 | -48.5 | 23.2 | 0.0 | 37.4 | -101.2 | -116.3 | 107.7 | -76.8 | 3.0 | -20.2 | -7.2 | -48.4 | -32.5 | -107.0 | 86.7 | 1.0 | -9.2 | 2.4 | 0.4 | Acid dissociation constants: pKa1 [1]: 2.82; Acid dissociation constants: pKa2 [1]: 8.46; GST/pr [2]: 4.1%; Prot. Hmg [2]: 2.3%; Prot. Ox/pr [2]: -7.8%; SOD/pr [2]: 1.1%; Mean % variation relative to the vehicle [2]: -1.3%; overall percentage inhibition [2]: greater than 40%; bioavailability at the target site / crossing of the blood-brain barrier [3]: particularly bioavailable, as well as able to cross the blood-brain barrier in effective amounts |
| CC1(C)CC(=O)C=C(NN2CCCCC2)C1 [(6), 5,5-dimethyl-3-(piperidin-1-ylamino)cyclohex-2-enone] | -18.8 | -28.8 | -100.0 | -72.8 | -36.3 | -97.6 | 45.9 | -60.8 | 10.1 | 6.8 | -34.3 | -10.4 | -18.7 | -8.4 | 21.5 | -2.1 | -2.5 | -6.4 | -8.7 | -9.6 | pKa ([1]; read-out: Acid dissociation constant: pKa): 2.62; GST/pr [2]: -2.5%; Prot. Hmg [2]: 8.4%; Prot. Ox/pr [2]: -5.6%; SOD/pr [2]: -10.8%; Mean % variation relative to the vehicle [2]: -5.4%; overall percentage inhibition [2]: greater than 40%; bioavailability at the target site / crossing of the blood-brain barrier [3]: particularly bioavailable, as well as able to cross the blood-brain barrier in effective amounts |
